Read-outs that look alike come from different tables or passages of the source.
Legend:
[1] = test system: multiple myeloma; experiment: Response of the pharmacogenomic patient subset (studies 024, 025, 039, 040), EBMT criteria; format: in vivo, human; details: for NP, number of patients classified as progression / NR, number of patients classified as responder / NS, number of patients classified as stable disease: best response, discovery samples
Procedure: Patients assigned to the high-dose dexamethasone group received treatment for a maximum of 280 days. Patients in this treatment group received up to four 5-week treatment cycles, followed by up to five 4-week treatment cycles. Within each 5-week treatment cycle, the patient received dexamethasone 40 mg/day PO, once daily on Days 1 to 4, 9 to 12, and 17 to 20 of a 35-day cycle. Within each 4-week treatment cycle, the patient received dexamethasone 40 mg/day PO once daily on Days 1 to 4 of a 28 day cycle.
Pharmacogenomic tumor samples (bone marrow aspirate) were collected from patients for evaluation of the expression of global mRNA levels.
For those patients who participated in the pharmacogenomic portion of the study, correlation between RNA expression levels and response to therapy were evaluated descriptively. In addition, duration of response, time to disease progression, quality of life, and overall patient survival may be analyzed using RNA expression as a factor.
A total of 224 patient samples were assessed for pharmacogenomic analyses. […] All pharmacogenomic analyses relied on the European Group for Blood and Marrow Transplant (EBMT) criteria of response category.
The data set consisted of discovery samples matched with the patient's outcome as measured by best response and time to disease progression. For best response, each patient was classified as responder (NR), stable disease (NS), or progression (NP). For marker identification, the three response classes were further grouped into responders vs. non-responders (stable and progression) (NP+S), responders vs. progression, or progression vs. others (stable and responders) (NR+S). The analyses further separated the patients based on the treatment they received. […] Thus, the responder vs. non-responder analysis utilizes 79 vs. 84 samples. The responder vs. progression analysis utilizes 79 vs. 41 and the progression vs. other analysis utilizes 41 vs. 122 samples. For the dexamethasone analysis NR=25, NS=16, and NP=21. Accordingly, the responder vs. non-responder analysis utilizes 25 vs. 37 samples. The responder vs. progression analysis utilizes 25 vs. 21 and the progression vs. other analysis utilizes 21 vs. 41 samples.

[2] = test system: multiple myeloma; details: bortezomib alone, cited from earlier work
[3] = test system: relapsed multiple myeloma; details: cited from earlier work

## CC(C)C[C@H](NC(=O)[C@H](Cc1ccccc1)NC(=O)c1cnccn1)B(O)O [bortezomib, N-pyrazinecarbonyl-L-phenylalanine-L-leucineboronic acid]
[1]; Study 024
  CR, number of patients: 1
  IE, number of patients: 0
  MR, number of patients: 0
  NC, number of patients: 1
  PD, number of patients: 4
  PR, number of patients: 1
[1]; Study 025
  CR, number of patients: 2
  IE, number of patients: 5
  MR, number of patients: 3
  NC, number of patients: 10
  PD, number of patients: 14
  PR, number of patients: 10
[1]; Study 040
  CR, number of patients: 1
  IE, number of patients: 2
  MR, number of patients: 6
  NC, number of patients: 13
  PD, number of patients: 8
  PR, number of patients: 20
[1]
  NP, number of patients classified as progression: 41
  NR, number of patients classified as responder: 79
  NS, number of patients classified as stable disease: 43
[1]; pharmacogenomic patient set
  CR+PR rate: 35%
  overall response rate: 46.4%
[2]; 53 of 193 patients
  CR+PR rate: 27%
[2]; 67 of 193 patients
  overall response rate (CR+PR+MR): 35%
[3]; bortezomib 1.0 mg/m^2
  CR+PR rate: 30%
[3]; bortezomib 1.3 mg/m^2
  CR+PR rate: 38%

## C[C@@H]1C[C@H]2[C@@H]3CCC4=CC(=O)C=C[C@]4(C)[C@@]3(F)[C@@H](O)C[C@]2(C)[C@@]1(O)C(=O)CO [dexamethasone]
[1]
  NP, number of patients classified as progression: 21
  NR, number of patients classified as responder: 25
  NS, number of patients classified as stable disease: 16

Source: patent US8889354B2, “Methods for the identification, assessment, and treatment of patients with cancer therapy” (Millennium Pharmaceuticals, Inc., priority 2005, dated 2014)
